ChEMBL document CHEMBL3714766, “Tetrahydroisoquinoline compounds and their use as pyruvate dehydrogenase kinase inhibitors” (2015)

The compounds below were run against Pyruvate dehydrogenase kinase (Homo sapiens, UniProt Q15119+Q15120+Q16654+Q15118) (assay: Binding affinity to pyruvate dehydrogenase kinase (unknown origin) by VER-00160364 probe based fluorescence polarization assay).

IC50 [nM]	Structure (SMILES)
10	C[C@H]1CCc2cc(-c3cc4cncnc4[nH]3)ccc2N1C(=O)c1ccc(O)cc1O
100	Cc1nccnc1-c1ccc2c(c1)CCC(C)N2C(=O)c1ccc(O)cc1O (stereo not given)
1000	CN(CCNC(=O)OC(C)(C)C)C(=O)c1ccc2c(c1)CCCN2C(=O)c1ccc(O)cc1O
1000	C[C@@H]1CCc2cc(F)ccc2N1C(=O)c1ccc(O)cc1O
1000	CN(CC(=O)O)C(=O)c1ccc2c(c1)CCCN2C(=O)c1ccc(O)cc1O
10000	C[C@H]1CCc2cc(-c3ccc(-c4ccccc4)cn3)ccc2N1C(=O)c1ccc(O)cc1O
1000	Cc1nc(C)c(-c2ccc3c(c2)CCC(C)N3C(=O)c2cc(Cl)c(O)cc2O)s1 (stereo not given)
100	CC(=O)Nc1ccc(-c2ccc3c(c2)CC[C@H](C)N3C(=O)c2ccc(O)cc2O)c(C)c1
10	Cc1cnc(C)c(-c2ccc3c(c2)CCC(c2cccnc2)N3C(=O)c2ccc(O)cc2O)n1 (stereo not given)
1000	O=C(c1ccc(O)cc1O)N1c2ccccc2CCC1c1ccco1 (stereo not given)
1000	C[C@H]1CCc2cc(-c3nc(C(F)(F)F)nc4ccccc34)ccc2N1C(=O)c1ccc(O)cc1O
100	CC1CCc2cc(C(=O)N(C)CCc3ccccn3)ccc2N1C(=O)c1ccc(O)cc1O (stereo not given)
100	CCOC(=O)c1nc(-c2ccc3c(c2)CC[C@H](C)N3C(=O)c2ccc(O)cc2O)c2ccccc2n1
10	COc1ccc(CN(C)C(=O)c2ccc3c(c2)CCC(C)N3C(=O)c2ccc(O)cc2O)cc1 (stereo not given)
10	Cc1cc(S(=O)(=O)N2CCOCC2)cnc1-c1ccc2c(c1)CCC(c1cccnc1)N2C(=O)c1ccc(O)cc1O (stereo not given)
10	C[C@H]1CCc2cc(C(=O)N(C)Cc3ccnc4ccccc34)ccc2N1C(=O)c1ccc(O)cc1O
100	COc1ccc(CN(C)C(=O)c2ccc3c(c2)CCC(C)N3C(=O)c2ccc(O)cc2O)cc1OC (stereo not given)
100	Cc1cccnc1-c1ccc2c(c1)CCC(C)N2C(=O)c1ccc(O)cc1O (stereo not given)
10	Cc1cc(S(=O)(=O)N2CC(F)(F)C2)cnc1-c1ccc2c(c1)CC[C@H](C)N2C(=O)c1ccc(O)cc1O
100	C[C@H]1CCc2cc(C(=O)N(C)Cc3cccc4c3ccc[n+]4C)ccc2N1C(=O)c1ccc(O)cc1O
100	CC1CCc2cc(-c3ncccc3C(F)(F)F)ccc2N1C(=O)c1ccc(O)cc1O (stereo not given)
100	COc1ccccc1-c1ccc2c(c1)CC[C@H](C)N2C(=O)c1ccc(O)cc1O
100	Cc1ccc2c(c1)CCCN2C(=O)c1ccc(O)cc1O
100	CC1CCc2cc(C(=O)N(C)Cc3cccnc3)ccc2N1C(=O)c1ccc(O)cc1O (stereo not given)

IC50 [nM]	Structure (SMILES)
100	CN(Cc1nc2ccccc2[nH]1)C(=O)c1ccc2c(c1)CCCN2C(=O)c1ccc(O)cc1O
1000	C[C@H]1CCc2cc(-c3ccccc3Cl)ccc2N1C(=O)c1ccc(O)cc1O
1000	C[C@H]1CCc2cc(-c3cccc(C#N)c3)ccc2N1C(=O)c1ccc(O)cc1O
100	CC1CCc2cc(C(=O)N(C)Cc3cnn(C)c3)ccc2N1C(=O)c1ccc(O)cc1O (stereo not given)
1000	Cc1cccnc1-c1ccc2c(c1)CCCN2C(=O)c1ccc(O)cc1O
1000	C[C@H]1CCc2cc(-c3ccc(OCCN4CCCC4)nn3)ccc2N1C(=O)c1ccc(O)cc1O
100	CNc1nnc(-c2ccc3c(c2)CC[C@H](C)N3C(=O)c2ccc(O)cc2O)c2ccccc12
10	Cc1nc(C)c(-c2ccc3c(c2)CCC(C)N3C(=O)c2ccc(O)cc2O)s1 (stereo not given)
1000	N#Cc1cccnc1-c1ccc2c(c1)CCCN2C(=O)c1ccc(O)cc1O
100	CC1CCc2cc(C(=O)N(C)CC(F)(F)F)ccc2N1C(=O)c1cc(Cl)c(O)cc1O (stereo not given)
100	COc1ccccc1CN(C)C(=O)c1ccc2c(c1)CCC(C)N2C(=O)c1ccc(O)cc1O (stereo not given)
100	C[C@H]1CCc2cc(C(=O)N(C)Cc3ccnc(Cl)c3)ccc2N1C(=O)c1ccc(O)cc1O
1000	CC1CCc2cc(-c3ncccc3C(F)(F)F)ccc2N1C(=O)c1cc(Cl)c(O)cc1O (stereo not given)
100	C[C@H]1CCc2ccccc2N1C(=O)c1cc(F)c(O)cc1O
100	COc1ccc2c(c1)CCCN2C(=O)c1ccc(O)cc1O
100	CC1CCc2cc(C(=O)N(C)Cc3ccc(Cl)c(Cl)c3)ccc2N1C(=O)c1ccc(O)cc1O (stereo not given)
1000	COc1ccc(-c2ccc3c(c2)CC[C@H](C)N3C(=O)c2ccc(O)cc2O)c(Cl)c1
10000	Cc1cccnc1-c1ccc2c(c1)CC[C@@H](C)N2C(=O)c1ccc(O)cc1O
1000	O=C(c1ccc(O)cc1O)N1CCCc2cc(-c3ncccc3Cl)ccc21
100	O=C(c1ccc(O)cc1O)N1c2ccccc2CCC1c1ccn[nH]1 (stereo not given)
1000	Cc1cnc(-c2ccc3c(c2)CCC(C)N3C(=O)c2cc(Cl)c(O)cc2O)n1C (stereo not given)
100	O=C(c1ccc(O)cc1O)N1c2ccccc2CC[C@@H]1c1cccnc1
1000	C[C@H]1CCc2cc(-c3ccc(Cl)nc3)ccc2N1C(=O)c1ccc(O)cc1O
100	Cc1cnc(NC(C)C)nc1-c1ccc2c(c1)CC[C@H](C)N2C(=O)c1ccc(O)cc1O

IC50 [nM]	Structure (SMILES)
100	CC1CCc2cc(F)ccc2N1C(=O)c1ccc(O)cc1O (stereo not given)
100	O=C(c1ccc(O)cc1O)N1c2ccccc2CCC1c1cccnc1 (stereo not given)
1000	C[C@H]1CCc2cc(-c3ccc(N4CCOCC4)nn3)ccc2N1C(=O)c1ccc(O)cc1O
1000	Cc1cn(C)c(-c2ccc3c(c2)CCC(C)N3C(=O)c2cc(Cl)c(O)cc2O)n1 (stereo not given)
1000	CC1CCc2cc(-c3occc3C#N)ccc2N1C(=O)c1ccc(O)cc1O (stereo not given)
10	CC1CCc2cc(C(=O)N(C)Cc3ccc(F)cc3)ccc2N1C(=O)c1ccc(O)cc1O (stereo not given)
10	CC1CCc2cc(C(=O)N(C)Cc3ccc(Cl)cc3)ccc2N1C(=O)c1ccc(O)cc1O (stereo not given)
100	CC1CCc2cc(C(=O)N3CCCCC3)ccc2N1C(=O)c1ccc(O)cc1O (stereo not given)
100	O=C(c1ccc(O)cc1O)N1CCCc2cc(F)ccc21
100	CC(C)c1ccc2c(c1)CCCN2C(=O)c1ccc(O)cc1O
100	C[C@H]1CCc2cc(-c3cc4nccnc4cn3)ccc2N1C(=O)c1ccc(O)cc1O
1000	C[C@H]1CCc2cc(-c3cnc4ccccc4n3)ccc2N1C(=O)c1ccc(O)cc1O
100	CC1CCc2cc(C(=O)N(C)Cc3ccc(Cl)cc3)ccc2N1C(=O)c1cc(Cl)c(O)cc1O (stereo not given)
10000	C[C@@H]1CCc2ccccc2N1C(=O)c1cc(Cl)c(O)cc1O
1000	CC1CCc2cc(-c3ncccc3C#N)ccc2N1C(=O)c1cc(Cl)c(O)cc1O (stereo not given)
100	C[C@H]1CCc2cc(-c3ncccc3C(F)(F)F)ccc2N1C(=O)c1ccc(O)cc1O
100	CC1CCc2cc(C(=O)N3CCC3)ccc2N1C(=O)c1ccc(O)cc1O (stereo not given)
100	CS(=O)(=O)NCC1CCc2ccccc2N1C(=O)c1ccc(O)cc1O (stereo not given)
1000	O=C(c1ccc2c(c1)CCCN2C(=O)c1ccc(O)cc1O)N1Cc2ccccc2C1
10	Cc1cc(S(=O)(=O)N2CCN(C)CC2)cnc1-c1ccc2c(c1)CC[C@H](C)N2C(=O)c1ccc(O)cc1O
1000	O=C(c1ccc(O)cc1O)N1CCCc2cc(-c3ncccc3C(F)(F)F)ccc21
1000	CCOC(=O)c1nc(C)nc(-c2ccc3c(c2)CC[C@H](C)N3C(=O)c2ccc(O)cc2O)c1C
100	Cc1ccnnc1-c1ccc2c(c1)CCC(C)N2C(=O)c1ccc(O)cc1O (stereo not given)
100	CC(=O)Nc1ccc(-c2ccc3c(c2)CC[C@H](C)N3C(=O)c2ccc(O)cc2O)c(C)n1

IC50 [nM]	Structure (SMILES)
100	C[C@H]1CCc2cc(-c3ncccc3Cl)ccc2N1C(=O)c1ccc(O)cc1O
100	C[C@H]1CCc2cc(-c3nc(C(N)=O)nc4ccccc34)ccc2N1C(=O)c1ccc(O)cc1O
100	Cc1cccnc1-c1ccc2c(c1)CCC(CNS(C)(=O)=O)N2C(=O)c1ccc(O)cc1O (stereo not given)
10	CCc1nccnc1-c1ccc2c(c1)CCC(c1cccnc1)N2C(=O)c1ccc(O)cc1O (stereo not given)
1000	O=C(c1ccc(O)cc1O)N1CCCc2cc(Br)ccc21
100	C[C@H]1CCc2ccccc2N1C(=O)c1ccc(O)cc1O
1000	C[C@H]1CCc2cc(-c3nc(C(F)(F)F)ccc3C(F)(F)F)ccc2N1C(=O)c1ccc(O)cc1O
100	Cc1nccnc1-c1ccc2c(c1)CC[C@H](C)N2C(=O)c1ccc(O)cc1O
1000	CC(C)C(=O)Nc1ccc2c(c1)CCCN2C(=O)c1ccc(O)cc1O
100	C[C@H]1CCc2cc(-c3ncccc3C#N)ccc2N1C(=O)c1ccc(O)cc1O
100	O=C(c1ccc2c(c1)CCCN2C(=O)c1ccc(O)cc1O)N1CCc2ccccc21
100	C[C@H]1CCc2cc(C(=O)N(C)Cc3cccnc3)ccc2N1C(=O)c1ccc(O)cc1O
1000	COc1cc2ncnc(-c3ccc4c(c3)CC[C@H](C)N4C(=O)c3ccc(O)cc3O)c2cc1OC
100	CC1CCc2cc(F)ccc2N1C(=O)c1cc(Cl)c(O)cc1O (stereo not given)
10	Cc1cnc(Cl)nc1-c1ccc2c(c1)CC[C@H](C)C2C(=O)c1ccc(O)cc1O (stereo not given in full)
100	O=C(c1ccc(O)cc1O)N1c2ccc(-c3nc4ccc(Cl)cc4cc3CO)cc2CCC1c1cccnc1 (stereo not given)
1000	NC(=O)COc1ccc2c(c1)CCCN2C(=O)c1ccc(O)cc1O
100	C[C@H]1CCc2cc(C(=O)N(C)Cc3ccc(Cl)cc3)ccc2N1C(=O)c1ccc(O)cc1O
100	C[C@H]1CCc2cc(-c3ncncc3C#N)ccc2N1C(=O)c1ccc(O)cc1O
100	Cc1cncnc1-c1ccc2c(c1)CC[C@H](C)N2C(=O)c1ccc(O)cc1O
100	C[C@H]1CCc2cc(-c3nc4ccccc4cc3CO)ccc2N1C(=O)c1ccc(O)cc1O
1000	Cc1cnc(NC2CCCC2)nc1-c1ccc2c(c1)CC[C@H](C)N2C(=O)c1ccc(O)cc1O
100	Cc1nc(C)c(-c2ccc3c(c2)CCCN3C(=O)c2ccc(O)cc2O)s1
